23 compounds from US9994587B2, “HIV protease inhibitors” (priority 2014, dated 2018) can be followed below.

In this assay the target is T1, wildtype HIV-1 protease (Human immunodeficiency virus type 1 group M subtype B, UniProt P04585).
T1 construct: preincubated with the HIV-1 protease (wild type) enzyme in assay buffer; made in house; host or cells: Escherichia coli
As to the kind of experiment: Assay for inhibition of microbial expressed HIV protease (Pepcleav). As to conditions: wild type HIV-1 protease 20 pM, peptide substrate 400 micromolar, pH 5.5; mean of at least two independent experiments. It is filed as biochemical. Here is the method: Assay for Inhibition of Microbial Expressed HIV Protease (“Pepcleav”)
Studies of the inhibition of the wildtype HIV-1 protease (which was expressed in Escherichia coli) were carried out with a peptide substrate [Val-Ser-Gln-Asn-(βnaphtyl)Ala-Pro-Ile-Val (SEQ ID NO 1)]. The inhibitor was first preincubated with the HIV-1 protease (wild type) enzyme in assay buffer (50 mM sodium acetate, pH 5.5, 100 mM NaCl, and 0.1% BSA) for 30 minutes at room temperature. Substrate was added to 400 micromolar in a total volume of 20 microliters containing 20 picomolar HIV-1 protease (final) and the reaction is incubated for 1 hour at 30° C. The reaction was quenched with the addition of formic acid and indinavir to 0.012% and 150 nM final concentrations, respectively. Product formation was determined after separation of product and substrate on a Zorbax Eclipse XDB-C18 column connected to an API 4000 mass spectrometer (Applied Biosystems) with multiple reaction monitoring (transitions were 644.5/428.9 and 615.4/422.2 (M1/M3) for product and indinavir respectively). The extent of inhibition of the reaction was determined from the peak area of the products.
Usually IC50 stands for the midpoint of a concentration-inhibition curve. The low end stands for greater potency, the high end for weaker potency. `COC(=O)N[C@H](C(=O)Nc1ccccc1CC[C@@H]1CNC[C@@H](COc2ccc(Br)cc2[N+](=O)[O-])O1)C(c1ccccc1)c1ccccc1` [Example 10, methyl N-[(1S)-1-benzhydryl-2-[[2-[2-[(2R,6S)-6-[(4-bromo-2-nitro-phenoxy)methyl]morpholin-2-yl]ethyl]phenyl]amino]-2-oxo-ethyl]carbamate] returned a 50% inhibitory concentration (IC50) of 120 nM. To `COC(=O)N[C@H](C(=O)Nc1ccccc1CC[C@@H]1CNC[C@@H](COc2ccc(-c3ccccc3)cc2)O1)C(c1ccccc1)c1ccccc1` [Example 11, methyl N-[(1S)-1-benzhydryl-2-oxo-2-[[2-[2-[(2R,6S)-6-[(4-phenylphenoxy)methyl]morpholin-2-yl]ethyl]phenyl]amino]ethyl] carbamate] belongs 6.6 nM. With `COC(=O)N[C@H](C(=O)Nc1ccccc1CC[C@@H]1CNC[C@@H](COc2ccc(Cc3ccccc3)cc2)O1)C(c1ccccc1)c1ccccc1` [Example 12, methyl N-[(1S)-1-benzhydryl-2-[[2-[2-[(2R,6S)-6-[(4-benzylphenoxy)methyl]morpholin-2-yl]ethyl]phenyl]amino]-2-oxo-ethyl]carbamate] the figure was 24 nM; with `COC(=O)N[C@H](C(=O)Nc1ccccc1CC[C@@H]1CNC[C@@H](COc2ccc(Br)cc2N)O1)C(c1ccccc1)c1ccccc1` [Example 13, methyl N-[(1S)-1-[[2-[2-[(2R,6S)-6-[(2-amino-4-bromo-phenoxy)methyl]morpholin-2-yl]ethyl]phenyl]carbamoyl]-2,2-diphenyl-ethyl]carbamate], 21 nM; with `COC(=O)N[C@H](C(=O)Nc1ccccc1CC[C@@H]1CNC[C@@H](COc2ccc(-n3ccnc3)cc2)O1)C(c1ccccc1)c1ccccc1` [Example 14, methyl N-[(1S)-1-benzhydryl-2-[[2-[2-[(2R,6S)-6-[(4-imidazol-1-ylphenoxy)methyl]morpholin-2-yl]ethyl]phenyl]amino]-2-oxo-ethyl]carbamate], 32 nM.

`COC(=O)N[C@H](C(=O)Nc1ccccc1CC[C@@H]1CNC[C@@H](COc2ccc(-n3cncn3)cc2)O1)C(c1ccccc1)c1ccccc1` [Example 15, methyl N-[(1S)-1-benzhydryl-2-oxo-2-[[2-[2-[(2R,6S)-6-[[4-(1,2,4-triazol-1-yl)phenoxy]methyl]morpholin-2-yl]ethyl]phenyl]amino]ethyl] carbamate] came in with a concentration for half-maximal inhibition (IC50) of 12 nM. Consider `COC(=O)N[C@H](C(=O)Nc1ccccc1CC[C@@H]1CNC[C@@H](COc2ccc(S(C)(=O)=O)cc2)O1)C(c1ccccc1)c1ccccc1` [Example 16, methyl N-[(1S)-1-benzhydryl-2-[[2-[2-[(2R,6S)-6-[(4-methylsulfonylphenoxy)methyl]morpholin-2-yl]ethyl]phenyl]amino]-2-oxo-ethyl]carbamate], for which the IC50 was 19 nM.

With `COC(=O)N[C@H](C(=O)Nc1ccccc1CC[C@@H]1CNC[C@@H](COc2ccc(C#N)cc2)O1)C(c1ccccc1)c1ccccc1` [Example 17, methyl N-[(1S)-1-benzhydryl-2-[[2-[2-[(2R,6S)-6-[(4-cyanophenoxy)methyl]morpholin-2-yl]ethyl]phenyl]amino]-2-oxo-ethyl]carbamate], the half-inhibitory concentration (IC50) was found to be 21 nM.

`COC(=O)N[C@H](C(=O)Nc1ccccc1CC[C@@H]1CNC[C@@H](CSc2cccc(Cl)c2)O1)C(c1ccccc1)c1ccccc1` [Example 18, methyl N-[(1S)-1-benzhydryl-2-[[2-[2-[(2R,6S)-6-[(3-chlorophenyl)sulfanylmethyl]morpholin-2-yl]ethyl]phenyl]amino]-2-oxo-ethyl]carbamate] had a half-inhibitory concentration (IC50) of 1.9 nM.

Take `COC(=O)N[C@H](C(=O)Nc1ccccc1CC[C@@H]1CNC[C@@H](CSc2ccc(Cl)c(Cl)c2)O1)C(c1ccccc1)c1ccccc1` [Example 19, methyl N-[(1S)-1-benzhydryl-2-[[2-[2-[(2R,6S)-6-[(3,4-dichlorophenyl)sulfanylmethyl]morpholin-2-yl]ethyl]phenyl]amino]-2-oxo-ethyl]carbamate]: the IC50 is 8.7 nM. To `COC(=O)N[C@H](C(=O)Nc1ccccc1CC[C@@H]1CNC[C@@H](CSc2cccc(Br)c2)O1)C(c1ccccc1)c1ccccc1` [Example 20, methyl N-[(1S)-1-benzhydryl-2-[[2-[2-[(2R,6S)-6-[(3-bromophenyl)sulfanylmethyl]morpholin-2-yl]ethyl]phenyl]amino]-2-oxo-ethyl]carbamate] belongs 2.9 nM; to `COC(=O)N[C@H](C(=O)Nc1ccccc1CC[C@@H]1CNC[C@@H](CSc2ccc(S(C)(=O)=O)cc2)O1)C(c1ccccc1)c1ccccc1` [Example 21, methyl N-[(1S)-1-benzhydryl-2-[[2-[2-[(2R,6S)-6-[(4-methylsulfonylphenyl)sulfanyl-methyl]morpholin-2-yl]ethyl]phenyl]amino]-2-oxo-ethyl]carbamate], 0.86 nM. To `COC(=O)N[C@H](C(=O)Nc1ccccc1CC[C@@H]1CNC[C@@H](CSc2ccc(C#N)cc2)O1)C(c1ccccc1)c1ccccc1` [Example 22, methyl N-[(1S)-1-benzhydryl-2-[[2-[2-[(2R,6S)-6-[(4-cyanophenyl)sulfanylmethyl]morpholin-2-yl]ethyl]phenyl]amino]-2-oxo-ethyl]carbamate] belongs 1.1 nM. To `COC(=O)N[C@H](C(=O)Nc1ccccc1CC[C@@H]1CNC[C@@H](CSc2cccc(S(C)(=O)=O)c2)O1)C(c1ccccc1)c1ccccc1` [Example 23, methyl N-[(1S)-1-benzhydryl-2-[[2-[2-[(2R,6S)-6-[(3-methylsulfonylphenyl)sulfanyl-methyl]morpholin-2-yl]ethyl]phenyl]amino]-2-oxo-ethyl]carbamate] belongs 0.8 nM; to `COC(=O)N[C@H](C(=O)Nc1ccccc1CC[C@@H]1CNC[C@@H](CSc2cccc(C#N)c2)O1)C(c1ccccc1)c1ccccc1` [Example 24, methyl N-[(1S)-1-benzhydryl-2-[[2-[2-[(2R,6S)-6-[(3-cyanophenyl)sulfanylmethyl]morpholin-2-yl]ethyl]phenyl]amino]-2-oxo-ethyl]carbamate], 2.1 nM; to `COC(=O)N[C@H](C(=O)Nc1ccccc1CC[C@@H]1CNC[C@@H](CSc2ccc(Cl)cc2Cl)O1)C(c1ccccc1)c1ccccc1` [Example 25, methyl N-[(1S)-1-benzhydryl-2-[[2-[2-[(2R,6S)-6-[(2,4-dichlorophenyl)sulfanylmethyl]morpholin-2-yl]ethyl]phenyl]amino]-2-oxo-ethyl]carbamate], 1.5 nM.

In turn, `COC(=O)N[C@H](C(=O)Nc1ccccc1CC[C@@H]1CNC[C@@H](CSc2ccc(Cl)cc2C)O1)C(c1ccccc1)c1ccccc1` [Example 26, methyl N-[(1S)-1-benzhydryl-2-[[2-[2-[(2R,6S)-6-[(4-chloro-2-methyl-phenyl)sulfanylmethyl]morpholin-2-yl]ethyl]phenyl]amino]-2-oxo-ethyl]carbamate] gave a half-inhibitory concentration (IC50) of 1.3 nM.

Regarding `COC(=O)N[C@H](C(=O)Nc1ccccc1CC[C@@H]1CNC[C@@H](CSc2ccc(Br)cc2F)O1)C(c1ccccc1)c1ccccc1` [Example 27, methyl N-[(1S)-1-benzhydryl-2-[[2-[2-[(2R,6S)-6-[(4-bromo-2-fluoro-phenyl)sulfanylmethyl]morpholin-2-yl]ethyl]phenyl]amino]-2-oxo-ethyl]carbamate], the IC50 was 0.53 nM. Regarding `COC(=O)N[C@H](C(=O)Nc1ccccc1CC[C@@H]1CNC[C@@H](COc2ccc(S(C)(=O)=O)cc2C)O1)C(c1ccccc1)c1ccccc1` [Example 28, methyl N-[(1S)-1-benzhydryl-2-[[2-[2-[(2R,6S)-6-[(2-methyl-4-methylsulfonyl-phenoxy)methyl]morpholin-2-yl]ethyl]phenyl]amino]-2-oxo-ethyl]carbamate], the IC50 is 18 nM.

For `COC(=O)N[C@H](C(=O)Nc1ccccc1CC[C@@H]1CNC[C@@H](COc2ccc(C#N)cc2C)O1)C(c1ccccc1)c1ccccc1` [Example 29, methyl N-[(1S)-1-benzhydryl-2-[[2-[2-[(2R,6S)-6-[(4-cyano-2-methyl-phenoxy)methyl]morpholin-2-yl]ethyl]phenyl]amino]-2-oxo-ethyl]carbamate], the half-inhibitory concentration (IC50) was 17 nM. As for `COC(=O)N[C@H](C(=O)Nc1ccccc1CC[C@@H]1CNC[C@@H](COc2cccc3[nH]ccc23)O1)C(c1ccccc1)c1ccccc1` [Example 30, methyl N-[(1S)-1-benzhydryl-2-[[2-[2-[(2R,6S)-6-(1H-indol-4-yloxymethyl)morpholin-2-yl]ethyl]phenyl]amino]-2-oxo-ethyl]carbamate], the IC50 was determined as 130 nM.

For `COC(=O)N[C@H](C(=O)Nc1ccccc1CC[C@@H]1CNC[C@@H](COc2cccc3c2CCC3)O1)C(c1ccccc1)c1ccccc1` [Example 31, methyl N-[(1S)-1-benzhydryl-2-[[2-[2-[(2R,6S)-6-(indan-4-yloxymethyl)morpholin-2-yl]ethyl]phenyl]amino]-2-oxo-ethyl]carbamate], the midpoint of inhibition, the IC50, lay at 36 nM. To `COC(=O)N[C@H](C(=O)Nc1ccccc1CC[C@@H]1CNC[C@@H](CSc2nnc(Cc3csc(C)n3)o2)O1)C(c1ccccc1)c1ccccc1` [Example 32, methyl N-[(1S)-1-benzhydryl-2-[[2-[2-[(2R,6S)-6-[[5-[(2-methylthiazol-4-yl)methyl]-1,3,4-oxadiazol-2-yl]sulfanylmethyl]morpholin-2-yl]ethyl]phenyl]amino]-2-oxo-ethyl]carbamate] belongs 8 nM.
